A short description of data set [1]: In vivo pharmacokinetic study, intravenous bolus. Conditions: rat, 1 mg/kg intravenous bolus; for AUC / AUC(0-inf) / clearance / Tmax / Vd / Cmax / half-life: male, Hans Wistar. On the procedure:
Male Hans Wistar rats were purchased from Charles River Laboratories UK. During the acclimatisation period the rats were group housed in cages of three and maintained under a 12 hour light/dark cycle with free access to food and water. Temperature and humidity were controlled according to UK Home Office regulations.
All compounds were formulated immediately prior to dosing in 10% DMSO, 20% Cremophor EL, 70% saline to provide 1 mg/ml solutions. Each rat received a weight corrected dose of formulated drug at 1 mg/kg administered by intravenous bolus injection via a lateral tail vein.
Terminal plasma and brain samples were collected from n=3 animals at specified time points (0.017, 0.083, 0.25, 0.5, 1, 2, 4 and 6 hours following dose administration).
Drug quantification was performed using liquid chromatography-tandem mass spectrometry using electrospray ionisation. Pharmacokinetic parameters were calculated using Phoenix WinNonlin software.

For data set [2], the target named is T1, CYP3A4 (Homo sapiens, UniProt P08684).
T1 construct: host or cells: insect cells infected with recombinant baculovirus (microsomes)
Briefly: Cytochrome profiling CYP3A4 (baculosomes). The format is in vitro ADME. The conditions noted are these: probe fluorogenic probe substrate (not named), 10 μM substrate. An excerpt: (§1) Cytochrome P450 (abbreviated CYP, P450 or CYP450) belong to very large and diverse superfamily of haemoproteins which accept both exogenous and endogenous compounds as substrates in enzymatic reactions and play a major role in drug metabolism. Although this class has more than 50 enzymes just 5 of them (CYP1A2, CYP2C9, CYP2C19, CYP2D6 and CYP3A4) are able to metabolise almost 90% of all drugs. Inhibition of these enzymes is one of the major reasons for drug-drug interactions. Consequently, detailed CYP inhibition profiles are a regulatory requirement for all new drugs. Inhibition potencies against the five most relevant CYP isoforms is performed using baculosomes; microsomes prepared from insect cells infected with recombinant baculovirus containing cDNA for a specific human P450 isozyme. The baculosomes are incubated with drug at a concentration of 1 μM in the presence of a probe substrate for 60 minutes at 37° C. The probe is normally metabolised by the baculosomes to produce a fluorescent metabolite. A substrate drug will compete for the isozyme and reduce the metabolism of the probe resulting in a decrease in the fluorescent signal. The percent inhibition due to the presence of the test compound is calculated using the following equation: [formula] • X=fluorescent intensity observed in the presence of test compound • A=fluorescent intensity observed in control • B=fluorescent intensity observed in the presence of the probe control

Data set [3] in a line: Plasma protein binding, rapid equilibrium dialysis. It is filed as in vitro ADME. The conditions noted are these: rat plasma, 4 hours 37° C., read-out: pb (% bound) Plasma (converted). On the procedure:
Determining the extent to which a molecule binds to factors present within plasma and brain is a critical phase of drug development as this determines not only the free unbound fraction available to exert the desired pharmacological actions but also influences dosing, clearance rate and the potential for drug-drug interactions. Binding is measured with the rapid equilibrium dialysis technique using cartridges consisting of two compartments (sample and buffer chamber) separated by a dialysis membrane.
All compounds are prepared in 100% DMSO to provide 10 mM stock solutions. Sample material is prepared by spiking a known volume of plasma or brain with the stock solution such that the final concentration of compound is 1 μM. This is placed in the sample chamber of the dialysis cartridge. Dialysis buffer is then added to the buffer chamber and the cartridge incubated at 37° C. for 4 hours. Following the incubation the test compound concentrations are determined in the two chambers and the % free or bound component calculated using the equation below:
[formula] [formula] In Vivo Pharmacokinetic Studies

Data set [4] deals with T2, CYP2C9 (Homo sapiens, UniProt P11712).
T2 construct: host or cells: insect cells infected with recombinant baculovirus (microsomes)
Kind of data set: Cytochrome profiling CYP2C9 (baculosomes). It is filed as in vitro ADME. The conditions noted are these: probe fluorogenic probe substrate (not named), 10 μM substrate.
Excerpt: as §1

Data set [5] concerns the target T3, hP2X7R (Homo sapiens, UniProt Q99572).
T3 sequence (Q99572 1-595): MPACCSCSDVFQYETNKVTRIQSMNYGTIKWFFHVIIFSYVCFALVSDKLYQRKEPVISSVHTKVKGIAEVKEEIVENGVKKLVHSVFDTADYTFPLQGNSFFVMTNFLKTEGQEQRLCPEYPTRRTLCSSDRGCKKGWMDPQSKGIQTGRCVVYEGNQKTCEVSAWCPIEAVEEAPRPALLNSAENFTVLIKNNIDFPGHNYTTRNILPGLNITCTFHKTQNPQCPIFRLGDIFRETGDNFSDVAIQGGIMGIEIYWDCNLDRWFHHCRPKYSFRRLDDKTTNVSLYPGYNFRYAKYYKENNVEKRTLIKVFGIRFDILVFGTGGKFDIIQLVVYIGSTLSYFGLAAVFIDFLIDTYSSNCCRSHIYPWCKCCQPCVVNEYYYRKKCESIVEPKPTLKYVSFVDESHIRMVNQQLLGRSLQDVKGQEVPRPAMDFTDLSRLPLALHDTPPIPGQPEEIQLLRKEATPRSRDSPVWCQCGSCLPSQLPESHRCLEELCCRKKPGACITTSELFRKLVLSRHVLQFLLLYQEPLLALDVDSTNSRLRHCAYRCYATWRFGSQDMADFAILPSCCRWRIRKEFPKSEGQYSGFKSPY
Briefly: Radioligand binding assay, displacement of [3H]-Compound 31, HEK-hP2X7 membranes. The conditions noted are these: displacement of tritium-labeled benzamide 31-t3, HEK cells expressing hP2X7R; mean ± standard deviation, n >3; read-out: Binding affinity Ki. On the procedure: Homogenates were centrifuged at 48 000 g for 20 min at 4° C., the supernatant discarded and the pellet resuspended in Tris HCl 50 mM (pH 7.4 at 4° C.). Two additional spins at 48 000 g followed, discarding the supernatant each time and resuspending the pellet in 50 mM Tris HCl each time. Protein content was determined via bicinchoninic acid (BCA) assay (Pierce Biotechnology Inc., Rockford), the membrane solution supplemented with 0.1% bovine serum albumin (BSA) and stored at −80° C.
The incubation was terminated by rapid filtration through a glass fibre filter (GF/B; Millipore, Ireland), presoaked beforehand with 0.3% PEI) and washed 10 times with 50 mM Tris HCl (4° C.). The filters were then allowed to dry overnight before adding Microscint-0 scintillation cocktail (Perkin Elmer). […] For Kd and Bmax determination the specific binding was calculated (total binding minus non-specific binding) and analyzed using a one-site binding model (hyperbolic). The total binding and non-specific binding were also plotted for comparison (see FIG. 4). […] The extra sum of squares F-test was used to evaluate three potential models to fit the data; a one-site fit (with hill slope constrained to 1), a one-site fit (with hill slope as a variable) and a two-site fit. […] The Koff from dissociation studies was calculated using non-linear regression (exponential model) and then, in combination with the data from association studies, used to calculate the Kon. All data were analyzed using GraphPad Prism 5.

Setting [6] is: brain, read-out: T1/2 Brain (converted).
The mark [7] stands for this setting: plasma, read-out: T1/2 Plasma (converted).

The structures appear in SMILES notation. Where two headings read alike, the source gives them in different places.

Four compounds from patent US12668568B2, “Adamantanyl-substituted benzamide compounds and their use as P2X7 receptor antagonists” (The University of Sydney, priority 2018, dated 2026) can be followed below.

T2 sequence (P11712 whole entry): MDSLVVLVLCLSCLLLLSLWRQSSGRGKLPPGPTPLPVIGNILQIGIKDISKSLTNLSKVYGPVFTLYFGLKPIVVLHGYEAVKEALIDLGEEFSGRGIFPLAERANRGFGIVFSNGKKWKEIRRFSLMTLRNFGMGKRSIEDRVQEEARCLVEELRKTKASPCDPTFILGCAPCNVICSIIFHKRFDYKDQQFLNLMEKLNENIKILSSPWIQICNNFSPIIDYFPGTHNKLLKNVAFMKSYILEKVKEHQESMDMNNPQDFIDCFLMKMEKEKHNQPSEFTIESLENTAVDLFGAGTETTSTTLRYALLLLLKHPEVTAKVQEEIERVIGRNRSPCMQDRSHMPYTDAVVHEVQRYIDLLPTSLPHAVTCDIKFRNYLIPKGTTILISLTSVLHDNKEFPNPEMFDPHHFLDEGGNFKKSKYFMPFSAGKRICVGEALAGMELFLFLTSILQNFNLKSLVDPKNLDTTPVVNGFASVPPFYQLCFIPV
T1 sequence (P08684 whole entry): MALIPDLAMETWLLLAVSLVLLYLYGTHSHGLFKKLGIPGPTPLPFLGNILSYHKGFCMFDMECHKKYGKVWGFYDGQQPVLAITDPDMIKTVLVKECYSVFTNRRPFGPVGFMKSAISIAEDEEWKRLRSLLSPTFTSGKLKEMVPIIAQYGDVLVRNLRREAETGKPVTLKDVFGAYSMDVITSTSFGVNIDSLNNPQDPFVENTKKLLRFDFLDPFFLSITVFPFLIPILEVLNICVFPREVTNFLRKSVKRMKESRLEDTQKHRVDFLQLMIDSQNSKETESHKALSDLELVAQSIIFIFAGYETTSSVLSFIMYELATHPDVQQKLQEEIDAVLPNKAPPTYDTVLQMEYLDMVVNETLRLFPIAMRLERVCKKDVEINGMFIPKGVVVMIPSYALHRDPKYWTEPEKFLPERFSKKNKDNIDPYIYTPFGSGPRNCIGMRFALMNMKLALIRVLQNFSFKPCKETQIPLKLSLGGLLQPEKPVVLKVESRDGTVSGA

Take `COc1ccc(Cl)c(C(=O)NCC23CC4(F)CC(F)(CC(F)(C4)C2)C3)c1` [Compound 1, 2-Chloro-N-((3,5,7-trifluoroadamantan-1-yl)methyl)-5-methoxybenzamide]: the AUC in data set [1] (brain, read-out: AUC6 Brain) worked out at 380 ng·h/mL; in data set [1] (plasma, read-out: AUC6 Plasma), 385 ng·h/mL. In addition, the AUC(0-inf) is 386 ng·h/mL in data set [1] (brain, read-out: AUC∞ Brain) and 399 ng·h/mL in data set [1] (plasma, read-out: AUC∞ Plasma). Also, the clearance in data set [1] (brain, read-out: Cl Brain) amounted to 43.2 mL/min/kg; in data set [1] (plasma, read-out: Cl Plasma) it was 41.8 mL/min/kg. For the same compound, the Tmax was found to be 1.2 min in data set [1] (brain, read-out: Tmax Brain) and 1.2 min in data set [1] (plasma, read-out: Tmax Plasma). For the same compound, the Vd in data set [1] (brain, read-out: Vd Brain) was 2.1 L/kg; in data set [1] (plasma, read-out: Vd Plasma) it was 2.75 L/kg. The compound also displayed a maximum concentration (Cmax) in data set [1] (plasma) of 1290 ng/mL. Also, the “Cmax Brain” value in data set [1] (brain) turned out to be 1464 ng/mL. For the same compound, the “T1/2 Brain” value in data set [1] (brain) stood at 75.6 min. The “T1/2 Plasma” value in data set [1] (plasma) was found to be 103 min. Also, the inhibition at 60 min, 1 μM in data set [2] was determined as 89.9%; in data set [4], 9.26%. Also, the fraction unbound at 4 h, 1 μM in data set [3] is 0.105.

On to `COc1ccc(Cl)c(C(=O)NCC23CC4CC(F)(CC(F)(C4)C2)C3)c1` [Compound 2, 2-Chloro-N-((3,5-difluoroadamantan-1-yl)methyl)-5-methoxybenzamide], for which the Ki in data set [5] turned out to be 23 ± 5 nM. Moreover, the AUC turned out to be 209 ng·h/mL in data set [1] (brain, read-out: AUC6 Brain) and 196 ng·h/mL in data set [1] (plasma, read-out: AUC6 Plasma). The AUC(0-inf) in data set [1] (brain, read-out: AUC∞ Brain) came out at 217 ng·h/mL; in data set [1] (plasma, read-out: AUC∞ Plasma) it was 199 ng·h/mL. Also, the clearance in data set [1] (brain, read-out: Cl Brain) is 76.9 mL/min/kg; in data set [1] (plasma, read-out: Cl Plasma) it was 83.5 mL/min/kg. In addition, the half-life in data set [1] (setting [6]) is 35.4 min; in data set [1] (setting [7]), 28.2 min. Further, the Tmax is 1.2 min in data set [1] (brain, read-out: Tmax Brain) and 1.2 min in data set [1] (plasma, read-out: Tmax Plasma). In addition, the distribution volume (Vd) in data set [1] (brain, read-out: Vd Brain) came out at 1.54 L/kg; in data set [1] (plasma, read-out: Vd Plasma) it was 1.41 L/kg. In data set [1] (plasma), the peak concentration (Cmax) turned out to be 1720 ng/mL. For the same compound, the “Cmax Brain” value in data set [1] (brain) came out at 1838 ng/mL. For the same compound, the inhibition at 60 min, 1 μM in data set [2] was 89.9%; in data set [4], -3%. Also, the fraction unbound at 4 h, 1 μM in data set [3] is 0.115.

In the case of `COc1ccc(Cl)c(C(=O)NCC23CC4CC(CC(F)(C4)C2)C3)c1` [Compound 3, 2-Chloro-N-((3-fluoroadamantan-1-yl)methyl)-5-methoxybenzamide], in data set [5], the Ki came to 21.9 ± 0.5 nM. Further, the AUC in data set [1] (brain, read-out: AUC6 Brain) stood at 286 ng·h/mL; in data set [1] (plasma, read-out: AUC6 Plasma) it was 175 ng·h/mL. The AUC(0-inf) in data set [1] (brain, read-out: AUC∞ Brain) stood at 291 ng·h/mL; in data set [1] (plasma, read-out: AUC∞ Plasma) it was 178 ng·h/mL. Besides, the clearance was 57.3 mL/min/kg in data set [1] (brain, read-out: Cl Brain) and 93.4 mL/min/kg in data set [1] (plasma, read-out: Cl Plasma). Besides, the half-life in data set [1] (setting [6]) and in data set [1] (setting [7]) was 25.8 min throughout. The Tmax came to 1.2 min in data set [1] (brain, read-out: Tmax Brain) and 1.2 min in data set [1] (plasma, read-out: Tmax Plasma). Besides, the Vd was 0.92 L/kg in data set [1] (brain, read-out: Vd Brain) and 1.8 L/kg in data set [1] (plasma, read-out: Vd Plasma). In data set [1] (plasma), the highest level (Cmax) was 1260 ng/mL. In data set [1] (brain), the “Cmax Brain” value was determined as 2422 ng/mL. Also, the inhibition at 60 min, 1 μM in data set [2] came out at 88.8%; in data set [4] it was 32.3%. In addition, the fraction unbound at 4 h, 1 μM in data set [3] is 0.0597.

With `COc1ccc(Cl)c(C(=O)NCC23CC4CC(CC(C4)C2)C3)c1` [Compound 31, reference compound], the Ki in data set [5] turned out to be 8.5 nM. The AUC came to 221 ng·h/mL in data set [1] (brain, read-out: AUC6 Brain) and 186 ng·h/mL in data set [1] (plasma, read-out: AUC6 Plasma). The AUC(0-inf) in data set [1] (brain, read-out: AUC∞ Brain) was 246 ng·h/mL; in data set [1] (plasma, read-out: AUC∞ Plasma), 192 ng·h/mL. Besides, the clearance in data set [1] (brain, read-out: Cl Brain) is 67.8 mL/min/kg; in data set [1] (plasma, read-out: Cl Plasma) it was 86.9 mL/min/kg. Besides, the Tmax in data set [1] (brain, read-out: Tmax Brain) was determined as 1.2 min; in data set [1] (plasma, read-out: Tmax Plasma) it was 1.2 min. Besides, the Vd in data set [1] (brain, read-out: Vd Brain) is 0.77 L/kg; in data set [1] (plasma, read-out: Vd Plasma) it was 2.09 L/kg. The Cmax in data set [1] (plasma) worked out at 1190 ng/mL. The “Cmax Brain” value in data set [1] (brain) came out at 1696 ng/mL. In addition, the “T1/2 Brain” value in data set [1] (brain) came to 9.6 min. For the same compound, the “T1/2 Plasma” value in data set [1] (plasma) turned out to be 28.2 min. For the same compound, the inhibition at 60 min, 1 μM in data set [2] is 84.4%; in data set [4], 75%. Besides, the fraction unbound at 4 h, 1 μM in data set [3] was 0.0079.
